The supplement of paper PMC10307832

Columns and labels:
Test in all cases: relative viability (nuclei count vs DMSO), 5 days (fraction); higher = more cells survive
Afatinib = compound: CN(C)C/C=C/C(=O)Nc1cc2c(Nc3ccc(F)c(Cl)c3)ncnc2cc1O[C@H]1CCOC1 [Afatinib]
In short: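 Cells of lung cancer lines were placed in 1536-well plates and kept overnight at 37 °C. Pinning then delivered five library-drug doses (not always all listed), spaced by √10, onto plates anchored with vehicle, and the cells were left 5 days without changing medium. One step fixed, permeabilised and stained them with Hoechst, and MetaXpress counted nuclei in 4× images. Viability, as a median over plates, is treated-well nuclei divided by vehicle-well nuclei, with acceptance only at control CV below 25% and at least one doubling.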

Afatinib + Palbociclib = compound: CN(C)C/C=C/C(=O)Nc1cc2c(Nc3ccc(F)c(Cl)c3)ncnc2cc1O[C@H]1CCOC1 [Afatinib] + CC(=O)c1c(C)c2cnc(Nc3ccc(N4CCNCC4)cn3)nc2n(C2CCCC2)c1=O [Palbociclib] (partner 0.5 µM)
In short: (§1)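 Dosing by pin tool came one day after lung cancer cell lines were seeded in 1536-well plates, using either one drug or a fixed anchor-drug dose plus five library-drug doses (not always all listed) in √10 steps. After 5 days, nuclei were counted on 4× images. Relative viability is treated-well nuclei count divided by vehicle-well nuclei count, and values are medians of duplicate plates.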

Afatinib + Foretinib = compound: CN(C)C/C=C/C(=O)Nc1cc2c(Nc3ccc(F)c(Cl)c3)ncnc2cc1O[C@H]1CCOC1 [Afatinib] + COc1cc2c(Oc3ccc(NC(=O)C4(C(=O)Nc5ccc(F)cc5)CC4)cc3F)ccnc2cc1OCCCN1CCOCC1 [Foretinib] (partner 0.25 µM)
In short: as §1

Afatinib + OSI-027 = compound: CN(C)C/C=C/C(=O)Nc1cc2c(Nc3ccc(F)c(Cl)c3)ncnc2cc1O[C@H]1CCOC1 [Afatinib] + COc1cccc2cc(-c3nc([C@H]4CC[C@H](C(=O)O)CC4)n4ncnc(N)c34)[nH]c12 [OSI-027] (partner 0.5 µM)
In short: as §1

Cell Line	relative viability (Afatinib; 0.005 µM)	relative viability (Afatinib; 0.01581 µM)	relative viability (Afatinib; 0.05 µM)	relative viability (Afatinib; 0.1581 µM)	relative viability (Afatinib; 0.5 µM)	relative viability (Afatinib + Palbociclib; first compound 0.005 µM)	relative viability (Afatinib + Palbociclib; first compound 0.01581 µM)	relative viability (Afatinib + Palbociclib; first compound 0.05 µM)	relative viability (Afatinib + Palbociclib; first compound 0.1581 µM)	relative viability (Afatinib + Palbociclib; first compound 0.5 µM)	relative viability (Afatinib + Foretinib; first compound 0.005 µM)	relative viability (Afatinib + Foretinib; first compound 0.01581 µM)	relative viability (Afatinib + Foretinib; first compound 0.05 µM)	relative viability (Afatinib + Foretinib; first compound 0.1581 µM)	relative viability (Afatinib + Foretinib; first compound 0.5 µM)	relative viability (Afatinib + OSI-027; first compound 0.005 µM)	relative viability (Afatinib + OSI-027; first compound 0.01581 µM)	relative viability (Afatinib + OSI-027; first compound 0.05 µM)	relative viability (Afatinib + OSI-027; first compound 0.1581 µM)	relative viability (Afatinib + OSI-027; first compound 0.5 µM)
NCI-H1666	0.95	0.894	0.75	0.707	0.801	0.656	0.617	0.645	0.673	0.688	0.932	0.812	0.761	0.725	0.774	0.88	0.759	0.657	0.581	0.612
NCI-H1734	0.998	0.979	1.02	0.968	1.03	0.369	0.34	0.298	0.339	0.319	0.926	0.785	0.83	0.73	0.924	0.671	0.624	0.587	0.57	0.511
NCI-H1755	0.997	0.983	1.05	1	1.02	0.463	0.438	0.441	0.456	0.433	0.947	0.937	0.964	0.901	0.897	0.736	0.754	0.845	0.627	0.668
NCI-H1793	0.829	0.616	0.558	0.418	0.536	0.258	0.3	0.273	0.218	0.21	0.621	0.463	0.401	0.352	0.353	0.237	0.211	0.168	0.233	0.146
NCI-H1915	1.06	0.988	1	0.973	0.922	0.564	0.539	0.526	0.506	0.491	1.19	1.05	1.11	1.02	0.974	0.742	0.613	0.602	0.611	0.469
NCI-H1944	0.916	0.906	0.794	0.575	0.73	0.287	0.33	0.272	0.206	0.237	0.797	0.899	0.668	0.535	0.657	0.429	0.329	0.328	0.311	0.327
NCI-H1975	0.945	0.851	0.79	0.479	0.336	0.72	0.469	0.472	0.253	0.21	0.952	0.907	0.872	0.353	0.303	0.81	0.644	0.688	0.303	0.147
NCI-H1993	0.935	0.75	0.84	0.776	0.692	0.532	0.571	0.539	0.538	0.577	0.551	0.598	0.6	0.675	0.618	0.519	0.588	0.674	0.697	0.564
NCI-H2009	1.04	0.998	1.06	0.997	1.06	0.238	0.25	0.253	0.231	0.247	1.22	1.19	1.31	1.21	1.33	0.635	0.633	0.714	0.516	0.459
NCI-H2023	0.968	0.85	0.898	0.882	0.886	0.382	0.333	0.284	0.265	0.275	0.811	0.892	0.42	0.333	0.562	0.38	0.354	0.394	0.351	0.279
NCI-H2085	0.99	0.958	0.856	0.757	0.858	0.445	0.448	0.42	0.36	0.419	0.888	0.773	0.791	0.59	0.628	0.71	0.61	0.541	0.366	0.366
NCI-H2087	1.06	0.857	1.04	0.998	0.895	0.232	0.185	0.226	0.253	0.191	1.19	1.16	1.24	1.15	0.842	0.731	0.507	0.652	0.753	0.383
NCI-H2126	1.01	0.932	0.816	0.679	0.693	0.342	0.338	0.364	0.342	0.314	1.03	1.19	1.08	0.729	0.853	0.732	0.641	0.547	0.494	0.415
NCI-H2170	0.907	0.837	0.445	0.276	0.253	0.389	0.357	0.275	0.139	0.116	0.962	1.01	0.906	0.369	0.294	0.67	0.5	0.293	0.192	0.191
NCI-H2228	1.24	0.884	0.812	0.953	1.05	0.884	0.774	0.705	0.749	0.744	0.914	0.88	0.774	0.795	0.759	0.546	0.418	0.589	0.638	0.545
